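Test compounds were applied to cells in 96-well plates for 48 hours at 5 doses. The concentration for 50% growth inhibition is given as GI50.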 The source made the active and inactive calls. Cut-off read from the data, not from the text of the source: active = GI50 up to about 1.1 µM and inactive = higher. Peptide text beside a SMILES is read from it. * marks the point of attachment. Trt = c1ccc(C(c2ccccc2)(c2ccccc2)*)cc1; Cbz = O=C(OCc1ccccc1)*
What was measured:
Experiment in all cases: NCI-60 cell line screen, 48 h
786-0 = test system: 786-0
A498 = test system: A498
A549 = test system: A549
ACHN = test system: ACHN
CAKI-1 = test system: CAKI-1
COLO 205 = test system: COLO 205
DU-145 = test system: DU-145
HOP-62 = test system: HOP-62
HOP-92 = test system: HOP-92
KM12 = test system: KM12
NCI-H23 = test system: NCI-H23
OVCAR-4 = test system: OVCAR-4
OVCAR-8 = test system: OVCAR-8
RXF 393 = test system: RXF 393
SNB-19 = test system: SNB-19
T47D = test system: T47D
U-251 = test system: U-251
UACC-257 = test system: UACC-257
UO-31 = test system: UO-31
MDA-N = test system: MDA-N

Measured: GI50

Nc1nc(N)c(C2=CCNCC2)c(=O)[nH]1
inactive: 786-0 > 100 µM | A498 > 100 µM | A549 > 100 µM | ACHN > 100 µM | CAKI-1 > 100 µM | COLO 205 > 100 µM | DU-145 > 100 µM | HOP-62 > 100 µM | HOP-92 > 100 µM | KM12 > 100 µM | NCI-H23 > 100 µM | OVCAR-4 > 100 µM | OVCAR-8 > 100 µM | RXF 393 > 100 µM | SNB-19 > 100 µM | T47D > 100 µM | U-251 > 100 µM | UACC-257 > 100 µM | UO-31 > 100 µM

NCCCCC(NC(=O)C(N)Cc1ccc(O)cn1)C(=O)O (centres undefined)
inactive: 786-0 > 100 µM | A498 > 100 µM | A549 > 100 µM | ACHN > 100 µM | CAKI-1 > 100 µM | COLO 205 > 100 µM | DU-145 > 100 µM | HOP-62 > 100 µM | HOP-92 > 100 µM | KM12 > 100 µM | MDA-N > 100 µM | NCI-H23 > 100 µM | OVCAR-4 > 100 µM | OVCAR-8 > 100 µM | RXF 393 > 100 µM | SNB-19 > 100 µM | U-251 > 100 µM | UACC-257 > 100 µM | UO-31 > 100 µM

COC1OC2COC(=O)c3cc(O)c(O)c(O)c3-c3c(cc(O)c(O)c3O)C(=O)OC2C(O)C1O (centres undefined)
inactive: 786-0 47.4 µM | A549 72.6 µM | ACHN 77.8 µM | CAKI-1 63.8 µM | COLO 205 54.1 µM | DU-145 > 100 µM | HOP-62 53 µM | KM12 > 100 µM | MDA-N 24 µM | NCI-H23 > 100 µM | OVCAR-4 31.5 µM | OVCAR-8 54.1 µM | RXF 393 > 100 µM | SNB-19 > 100 µM | U-251 61.2 µM | UACC-257 > 100 µM | UO-31 > 100 µM

COC(=O)Cc1nc2ccccc2o1
inactive: 786-0 > 100 µM | A498 > 100 µM | A549 74.6 µM | ACHN 41.7 µM | CAKI-1 37.9 µM | COLO 205 95.1 µM | HOP-62 > 100 µM | HOP-92 > 100 µM | KM12 66.5 µM | NCI-H23 > 100 µM | OVCAR-4 > 100 µM | OVCAR-8 55.5 µM | RXF 393 > 100 µM | SNB-19 > 100 µM | U-251 83.8 µM | UACC-257 47 µM | UO-31 > 100 µM

N=C(N)NS(=O)(=O)c1ccc(NC(=O)c2cccc3c(Nc4ccc(S(N)(=O)=O)cc4)c4ccccc4nc23)cc1
inactive: 786-0 > 100 µM | A498 > 100 µM | A549 > 100 µM | ACHN > 100 µM | CAKI-1 > 100 µM | COLO 205 > 100 µM | HOP-62 > 100 µM | HOP-92 > 100 µM | KM12 > 100 µM | NCI-H23 > 100 µM | OVCAR-4 > 100 µM | OVCAR-8 > 100 µM | RXF 393 > 100 µM | SNB-19 > 100 µM | U-251 > 100 µM | UACC-257 > 100 µM | UO-31 > 100 µM

CC(=O)Nc1cc(Nc2cc(O)nc(O)n2)ccc1C
inactive: 786-0 > 100 µM | A498 > 100 µM | A549 > 100 µM | ACHN > 100 µM | COLO 205 > 100 µM | DU-145 > 100 µM | HOP-62 > 100 µM | HOP-92 > 100 µM | KM12 > 100 µM | MDA-N > 100 µM | OVCAR-4 > 100 µM | OVCAR-8 > 100 µM | RXF 393 > 100 µM | SNB-19 > 100 µM | U-251 > 100 µM | UACC-257 > 100 µM | UO-31 > 100 µM

CCN(CC)CCC(=O)/C=C/c1ccc(Cl)c(Cl)c1
inactive: 786-0 3.31 µM | A549 2.78 µM | ACHN 3.03 µM | COLO 205 3.85 µM | DU-145 > 10 µM | HOP-62 > 10 µM | HOP-92 > 10 µM | KM12 2.36 µM | MDA-N 2.63 µM | NCI-H23 > 10 µM | OVCAR-4 9.35 µM | OVCAR-8 4.21 µM | SNB-19 5.79 µM | T47D 2.33 µM | U-251 4.76 µM | UACC-257 > 10 µM

COC(=O)C(CO)NC(=O)C(CSC(c1ccccc1)(c1ccccc1)c1ccccc1)NC(=O)OCc1ccccc1 (centres undefined) (Cbz-Cys(Trt)-Ser-OMe; configuration not given here)
inactive: 786-0 20.9 µM | A549 13.4 µM | ACHN 21.2 µM | CAKI-1 16.6 µM | COLO 205 15.6 µM | DU-145 19.1 µM | HOP-62 17.3 µM | HOP-92 15.2 µM | KM12 16.1 µM | NCI-H23 17.9 µM | OVCAR-4 20.6 µM | OVCAR-8 14.5 µM | RXF 393 8.91 µM | SNB-19 19.5 µM | T47D 20.7 µM | U-251 16.7 µM | UO-31 14.5 µM

— ChEMBL document CHEMBL1201862, “PubChem BioAssay data set” (2004)
